Assay results as given in patent US20240207402A1, “MEANS AND METHODS FOR ENHANCING RECEPTOR-TARGETED GENE TRANSFER” (Deutsches Krebsforschungszentrum Stiftung des öffentlichen …, priority 2021, published 2024).

What was measured:
activated PBMC [1] = assay: Comparison of tyrosine kinase inhibitors on targeted LV transduction of activated PBMC; type: cell-based, human; details: 5 h; for effect of TKI on transduction by targeted LVs: 50 nM dasatinib, 1 μM imatinib or 30 μM genistein
Nalm-6 cells = type: cell-based, human
CD19+Nalm-6 cells = type: cell-based, human; details: effector:target 0.5:1
CD25 = type: cell-based, human
human CD3 receptor = type: cell-based; details: 50 or 100 nM dasat., three days post transduction
activated PBMC [2] = system: activated PBMC
activated PBMC [3] = assay: Binding of CD3-targeted LVs to activated PBMC (anti-His staining); type: cell-based, human; details: 100 nM dasatinib, 7 h and 24 h after start of treatment
Procedure: To understand the mechanism behind the transduction enhancing characteristic of dasatinib, fully activated PBMC were incubated with CD3-targeted LVs, as described above, and analyzed via flow cytometry 7, 24 and 72 h after start of incubation with dasatinib and transduction. Cells were stained with anti-His-PE, allowing the detection of L. Vs bound to the cells.

[4] = system: freshly isolated PBMC exposed solely to IL-7/15; type: cell-based, human
[5] = system: splenocytes isolated from huNSG mice; type: cell-based, humanized NSG mice; details: CD3-LV(GFP), 50 or 100 nM dasatinib 5 h, three days post transduction
activated PBMC [6] = assay: Vector titers (transducing units/mL) on activated PBMC; type: cell-based, human
Procedure: Transduction was additionally promoted by the transduction enhancer VF-1. Culture medium without dasatinib and Vectofusin-1 was used for control transductions. Transgene expression in T-cells was evaluated 3 and 7 days post transduction by flow cytometry. […] After spinfection, 100 μL of fresh media, either containing the different dasatinib concentrations or without dasatinib, was added and the cells were cultured at 37° C. The medium was changed to fresh TCM with IL-2 or IL-7/15 without dasatinib 3 h, 5 h or 7 h after start of incubation with dasatinib. The cells were further cultured at 37° C., and analyzed for transgene expression 3-4 and 7 days post transduction by flow cytometry. Vector titers were determined in transducing units per milliliter (T U/mL) from LV dilutions showing linear correlation to the number of transgene-positive cells and calculated using following equation.

[7] = system: CD45+ cells isolated from blood; assay: In vivo transduction in PBMC-humanized NSG mice; details: 10 mg/kg dasatinib i.p. one hour prior to CD3-LV i.v., seven days, not statistically significant
Procedure: For humanization, 1×10^7 ex vivo activated PBMC were transplanted by intravenous (i.v.) tail-vein injection into 8 week old mice. Humanization levels were measured and used for grouping of the mice by flow cytometry from blood taken eleven days post PBMC injection. The following day, 10 mg/kg dasatinib diluted in vehicle (4% DMSO, 33.3% PEG-300, 5% Tween80, 57.7% ddH20) was intraperitoneally (i.p.) administered to the mice, one hour prior to CD3-LV i.v. injection. The animals were sacrificed seven days post vector administration. Blood, spleen and bone marrow were collected and single cell 35 suspensions were prepared and analyzed by flow cytometry. Additionally, genomic DNA was isolated from the single cell suspension and used for vector copy number (VCN) analysis using quantitative polymerase chain reaction (qPCR).

activated PBMC [8] = type: cell-based, human
human whole blood = type: cell-based; details: 100 nM dasatinib, five to six days
activated PBMC [9] = assay: Transduction of fully activated PBMC with targeted LVs in presence of dasatinib (GFP expression, flow cytometry); type: cell-based, human
[10] = system: freshly isolated PBMC exposed solely to IL-7/15; details: 100 nM dasatinib, day 4 and 7

Structure (SMILES): Cc1ccc(NC(=O)c2ccc(CN3CCN(C)CC3)cc2)cc1Nc1nccc(-c2cccnc2)n1 [imatinib, 4-[(4-Methylpiperazin-1-yl)methyl]-N-{4-methyl-3-[(4-pyridin-3˜ ylpyrimidin-2-yl)amino]phenyl}benzamid]
- effect of TKI on transduction by targeted LVs (activated PBMC [1]): did not lead to an increase

Structure (SMILES): Cc1nc(Nc2ncc(C(=O)Nc3c(C)cccc3Cl)s2)cc(N2CCN(CCO)CC2)n1 [dasatinib, N-(2-Chloro-6-methylphenyl)-2-[[6-[4-(2-hydroxyethyl)-1-piperazinyl]-2-methyl-4-pyrimidinyl]amino]-5 thiazolecarboxamide]
- overall CAR expression compared to untreated cells (Nalm-6 cells; 50 nM dasatinib during transduction with CD3-LV(CAR)): increased
- target cell killing by CAR T cells generated in presence of dasatinib (Nalm-6 cells; 50 nM dasatinib, day 2 up to day 8, 1:1 ratio): complete target cell killing
- CAR T cell exhaustion and phenotype markers dependent on dasatinib treatment (Nalm-6 cells; day 8 of the killing assay): no difference
- tumor killing (dead target cells) by CAR T cells generated in presence of dasatinib (CD19+Nalm-6 cells; 4 h): around 40%
- Nalm-6 cells killed by CD19-CAR T cells (CD19+Nalm-6 cells; 24 h): nearly all
- CD25-expression upon activating antibodies or CD3-LVs in presence of dasatinib (CD25): did not cause an increase
- MFI of the CD3 receptor in presence of CD3-LV and dasatinib (human CD3 receptor): only slightly reduced
- viability in presence of dasatinib compared to untreated cells (activated PBMC [2]; activated PBMC, 100 nM dasatinib, day 3 and 7): not compromised
- viability of the cells at high dasatinib concentration (activated PBMC [2]; dasatinib concentrations above 50 nM, 3 days post transduction): dropped slightly
- amount of CD3-LVs bound to the cells (activated PBMC [3]): substantially increased
- TR66-LV mediated gene transfer, VF-1 added to dasatinib-treated cells ([4]; IL-7/15 only PBMC, 100 nM dasatinib plus VF-1): 10%
- improvement of CD3-LV transduction of cytokine-only stimulated T-cells ([4]; in presence of dasatinib (summary)): 7 fold
- GFP expression of CD45+ splenocytes in presence of dasatinib [5]: around 25%
- increase of titers of CD3-LV(CAR) in presence of dasatinib (activated PBMC [6]; CD19 CAR, three days post transduction): 3-16 fold
- titers of CD3-LV(GFP) in presence of dasatinib (activated PBMC [6]; with dasatinib): 1e7-1e8 T.U./mL
- GFP-expression and vector integration in genomic DNA of blood cells in vivo [7]: clear tendency
- increase of transgene expression, transduction with CD3-LV (activated PBMC [1]; 50 nM dasatinib or 1 μM bosutinib, GFP three days post transduction): ~4 fold
- effect of TKI on transduction by targeted LVs (activated PBMC [1]): strongest increase
- CAR transduction in presence of VF-1 with dasatinib (activated PBMC [8]): 13%
- CAR-expression, CD3-LV transduced cells, dasatinib present (activated PBMC [8]): up to 10%
- GFP-expression of CD3+ cells, CD3-LV in presence of dasatinib (human whole blood): above 2%
- GFP-expression, TR66-LV in presence of dasatinib (activated PBMC [9]): 30%
- T-cells transduced by CD3-LVs in presence of dasatinib (activated PBMC [9]): up to 70%
- effect of pretreatment on cell-directed gene transfer using CD3-LVs (activated PBMC [9]): dramatically increases
- effect on CD4-LV transduction (activated PBMC [9]): slight increase
- effect on transduction by CD8-LV and VSV-LV (activated PBMC [9]): not affected
- increase in transduction (maximum in this setup) (activated PBMC [9]): 3 fold
- increase in transduction compared to untreated cells (activated PBMC [9]): 1.6 fold
- increase in transduction compared with Vectofusin-1 (activated PBMC [9]): even stronger than by the transduction enhancer Vectofusin-1
- less transduction after short incubation compared to longer incubation time (activated PBMC [9]): 10-35%
- stability of gene transfer (activated PBMC [9]): remained stable
- transduction enhancement at lowest concentration (activated PBMC [9]): not sufficient to enhance transduction
- transduction for TR66-LV, VF-1 added in presence of dasatinib (activated PBMC [9]): ~70%
- cell viability of non-activated cells [10]: did not negatively affecT-cell viability

Structure (SMILES): O=c1c(-c2ccc(O)cc2)coc2cc(O)cc(O)c12 [genistein]
- effect of TKI on transduction by targeted LVs (activated PBMC [1]): slight increase
